Test results from US20100292231A1, “Indazole Compounds for Treating Inflammatory Disorders, Demyelinating Disorders and Cancers” (priority 2007, published 2010).
pEC50: −log10 of the molar value. Where two headings read alike, the source gives them in different places.

How the values were obtained:
Experiment in all cases: SelectScreen kinase specificity survey
Assay type in all cases: biochemical
[1] = biological target: T1, ABL1 Y253F (Homo sapiens, UniProt P00519, Y253F); conditions: estimated, abridged dose response curve, read-out: Kinase inhibitory activity EC50
T1 construct: purchased Invitrogen (SelectScreen platform)
Summary of the method: (§1)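 ATP held at 100 micromolar; every kinase had its own substrate and optical reporter. The compound was dosed in 5 increments, and a 4-parameter Hill curve gave the EC50 estimate.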

[2] = biological target: T2, ALK (Homo sapiens, UniProt Q9UM73); conditions: estimated, abridged dose response curve, read-out: Kinase inhibitory activity EC50
T2 construct: purchased Invitrogen (SelectScreen platform)
T2 sequence (Q9UM73 19-1620): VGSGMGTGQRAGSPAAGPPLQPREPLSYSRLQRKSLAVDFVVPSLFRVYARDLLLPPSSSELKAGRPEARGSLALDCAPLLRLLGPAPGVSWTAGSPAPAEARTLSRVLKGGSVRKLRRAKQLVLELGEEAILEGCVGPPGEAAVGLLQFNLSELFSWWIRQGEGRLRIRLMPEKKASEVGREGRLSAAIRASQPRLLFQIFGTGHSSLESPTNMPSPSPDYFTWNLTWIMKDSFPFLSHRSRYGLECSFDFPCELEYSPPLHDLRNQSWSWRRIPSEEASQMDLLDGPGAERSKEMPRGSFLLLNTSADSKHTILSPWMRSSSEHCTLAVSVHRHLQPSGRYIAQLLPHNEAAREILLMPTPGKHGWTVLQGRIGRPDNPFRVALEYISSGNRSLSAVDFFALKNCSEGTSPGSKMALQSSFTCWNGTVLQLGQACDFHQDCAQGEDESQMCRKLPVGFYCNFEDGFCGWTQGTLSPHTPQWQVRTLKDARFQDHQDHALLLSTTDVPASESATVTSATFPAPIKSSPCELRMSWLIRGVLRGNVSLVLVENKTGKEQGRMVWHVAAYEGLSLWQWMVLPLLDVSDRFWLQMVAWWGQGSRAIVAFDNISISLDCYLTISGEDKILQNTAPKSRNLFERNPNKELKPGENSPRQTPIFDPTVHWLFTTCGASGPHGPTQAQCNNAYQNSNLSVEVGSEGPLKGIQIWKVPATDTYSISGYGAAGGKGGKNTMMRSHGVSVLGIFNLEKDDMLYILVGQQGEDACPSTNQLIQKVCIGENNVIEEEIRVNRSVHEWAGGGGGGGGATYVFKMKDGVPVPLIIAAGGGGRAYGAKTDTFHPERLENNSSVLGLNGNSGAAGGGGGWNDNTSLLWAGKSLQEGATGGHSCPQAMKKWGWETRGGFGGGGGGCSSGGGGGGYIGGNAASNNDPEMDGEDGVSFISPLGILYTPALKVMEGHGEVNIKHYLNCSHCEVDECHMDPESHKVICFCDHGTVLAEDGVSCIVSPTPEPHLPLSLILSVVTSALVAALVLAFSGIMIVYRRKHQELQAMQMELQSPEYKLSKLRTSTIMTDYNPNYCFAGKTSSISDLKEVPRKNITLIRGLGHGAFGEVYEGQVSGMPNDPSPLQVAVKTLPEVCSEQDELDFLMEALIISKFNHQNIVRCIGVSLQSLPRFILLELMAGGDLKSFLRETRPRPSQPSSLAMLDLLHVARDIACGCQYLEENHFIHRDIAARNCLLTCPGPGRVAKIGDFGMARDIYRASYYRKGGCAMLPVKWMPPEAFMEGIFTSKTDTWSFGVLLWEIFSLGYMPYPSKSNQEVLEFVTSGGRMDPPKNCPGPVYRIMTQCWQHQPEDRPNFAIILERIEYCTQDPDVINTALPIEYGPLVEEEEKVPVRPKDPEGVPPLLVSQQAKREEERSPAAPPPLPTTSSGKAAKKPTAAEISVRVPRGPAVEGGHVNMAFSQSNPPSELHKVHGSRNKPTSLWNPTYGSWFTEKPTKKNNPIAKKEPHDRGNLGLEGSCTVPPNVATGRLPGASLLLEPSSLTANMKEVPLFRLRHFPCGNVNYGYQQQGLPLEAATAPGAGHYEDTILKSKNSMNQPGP
Summary of the method: as §1

[3] = biological target: T3, BRAF V599E (Homo sapiens, UniProt P15056, V600E); conditions: estimated, abridged dose response curve, read-out: Kinase inhibitory activity EC50
T3 construct: purchased Invitrogen, Inc. (SelectScreen platform)
T3 sequence (P15056 416-766 V600E limits assumed): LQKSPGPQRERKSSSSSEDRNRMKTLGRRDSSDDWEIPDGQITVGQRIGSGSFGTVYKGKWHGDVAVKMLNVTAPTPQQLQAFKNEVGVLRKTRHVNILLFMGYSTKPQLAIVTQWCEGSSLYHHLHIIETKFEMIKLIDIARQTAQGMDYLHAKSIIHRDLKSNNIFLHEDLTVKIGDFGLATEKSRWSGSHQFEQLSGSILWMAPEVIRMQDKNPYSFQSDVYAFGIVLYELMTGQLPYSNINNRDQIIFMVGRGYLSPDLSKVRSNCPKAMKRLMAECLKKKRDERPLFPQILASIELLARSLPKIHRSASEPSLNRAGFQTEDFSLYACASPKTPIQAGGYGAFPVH
Summary of the method: as §1

[4] = biological target: T4, CLK1 (Homo sapiens, UniProt P49759); conditions: estimated, abridged dose response curve, read-out: Kinase inhibitory activity EC50
T4 construct: purchased Invitrogen (SelectScreen platform)
Summary of the method: as §1

[5] = biological target: T5, CLK2 (Homo sapiens, UniProt P49760); conditions: estimated, abridged dose response curve, read-out: Kinase inhibitory activity EC50
T5 construct: purchased Invitrogen (SelectScreen platform)
T5 sequence (P49760 whole entry): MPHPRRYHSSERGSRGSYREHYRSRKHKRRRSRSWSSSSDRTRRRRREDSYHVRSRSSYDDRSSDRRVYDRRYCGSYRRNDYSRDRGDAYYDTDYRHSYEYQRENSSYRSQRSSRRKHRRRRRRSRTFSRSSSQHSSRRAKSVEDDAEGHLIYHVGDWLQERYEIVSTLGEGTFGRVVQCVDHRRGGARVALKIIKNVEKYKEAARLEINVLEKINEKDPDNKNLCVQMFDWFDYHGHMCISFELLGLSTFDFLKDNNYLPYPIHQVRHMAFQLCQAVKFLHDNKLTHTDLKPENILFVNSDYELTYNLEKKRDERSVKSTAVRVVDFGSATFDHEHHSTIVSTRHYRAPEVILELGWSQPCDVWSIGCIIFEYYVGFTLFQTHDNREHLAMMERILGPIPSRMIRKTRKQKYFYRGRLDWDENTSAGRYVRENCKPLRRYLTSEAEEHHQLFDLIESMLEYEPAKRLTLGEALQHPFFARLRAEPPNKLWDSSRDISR
Summary of the method: as §1

[6] = biological target: T6, CSK (Homo sapiens, UniProt P41240); conditions: estimated, abridged dose response curve, read-out: Kinase inhibitory activity EC50
T6 construct: purchased Invitrogen (SelectScreen service)
Summary of the method: as §1

[7] = biological target: T7, EEF2K (Homo sapiens, UniProt O00418); conditions: estimated, abridged dose response curve, read-out: Kinase inhibitory activity EC50
T7 construct: purchased Invitrogen, Inc. (SelectScreen platform)
Summary of the method: as §1

[8] = biological target: T8, EGFR (ErbB1) L861Q (Homo sapiens, UniProt P00533, L861Q); conditions: estimated, abridged dose response curve, read-out: Kinase inhibitory activity EC50
T8 construct: purchased Invitrogen (SelectScreen service)
Summary of the method: as §1

[9] = biological target: T9, FGFR3 (Homo sapiens, UniProt P22607); conditions: estimated, abridged dose response curve, read-out: Kinase inhibitory activity EC50
T9 construct: purchased Invitrogen (SelectScreen platform)
Summary of the method: as §1

[10] = biological target: T10, GRK4 (Homo sapiens, UniProt P32298)
T10 construct: purchased Invitrogen (SelectScreen platform)
Summary of the method: as §1

[11] = biological target: T11, HIPK1 (Myak) (Homo sapiens, UniProt Q86Z02); conditions: estimated, abridged dose response curve, read-out: Kinase inhibitory activity EC50
T11 construct: purchased Invitrogen (SelectScreen platform)
T11 sequence (Q86Z02 whole entry): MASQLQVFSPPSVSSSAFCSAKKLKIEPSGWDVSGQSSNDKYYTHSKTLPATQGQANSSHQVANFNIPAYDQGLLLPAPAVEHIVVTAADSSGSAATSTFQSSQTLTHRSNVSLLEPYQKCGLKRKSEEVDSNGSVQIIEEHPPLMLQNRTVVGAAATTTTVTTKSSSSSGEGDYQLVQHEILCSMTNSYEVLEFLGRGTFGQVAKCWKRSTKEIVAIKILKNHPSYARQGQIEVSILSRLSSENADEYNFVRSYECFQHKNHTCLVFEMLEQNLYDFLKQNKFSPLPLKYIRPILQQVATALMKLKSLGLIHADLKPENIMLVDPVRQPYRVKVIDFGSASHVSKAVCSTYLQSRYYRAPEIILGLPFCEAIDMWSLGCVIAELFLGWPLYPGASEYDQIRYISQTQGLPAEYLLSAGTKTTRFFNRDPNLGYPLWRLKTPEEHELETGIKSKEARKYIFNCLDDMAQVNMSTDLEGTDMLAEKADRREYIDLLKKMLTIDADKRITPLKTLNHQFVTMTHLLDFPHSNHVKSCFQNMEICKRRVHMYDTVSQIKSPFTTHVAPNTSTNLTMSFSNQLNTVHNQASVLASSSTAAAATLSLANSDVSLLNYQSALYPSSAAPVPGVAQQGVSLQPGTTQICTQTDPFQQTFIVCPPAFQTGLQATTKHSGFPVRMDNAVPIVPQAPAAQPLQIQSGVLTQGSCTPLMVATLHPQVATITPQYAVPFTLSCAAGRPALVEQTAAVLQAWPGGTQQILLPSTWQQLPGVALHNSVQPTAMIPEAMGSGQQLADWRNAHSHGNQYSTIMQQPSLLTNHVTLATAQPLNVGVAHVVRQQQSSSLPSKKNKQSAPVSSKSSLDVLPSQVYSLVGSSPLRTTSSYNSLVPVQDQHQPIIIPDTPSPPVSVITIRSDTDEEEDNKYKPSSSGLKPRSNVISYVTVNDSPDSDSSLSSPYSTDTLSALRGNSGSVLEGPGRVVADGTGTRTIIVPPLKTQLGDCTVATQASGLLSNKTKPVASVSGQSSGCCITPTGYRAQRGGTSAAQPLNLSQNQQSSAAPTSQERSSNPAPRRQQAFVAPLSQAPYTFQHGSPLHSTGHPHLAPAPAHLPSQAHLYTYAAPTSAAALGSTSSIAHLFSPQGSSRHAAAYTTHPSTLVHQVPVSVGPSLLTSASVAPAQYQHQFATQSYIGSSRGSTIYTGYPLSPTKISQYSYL
Summary of the method: as §1

[12] = biological target: T12, IGF1R (Homo sapiens, UniProt P08069); conditions: estimated, abridged dose response curve, read-out: Kinase inhibitory activity EC50
T12 construct: purchased Invitrogen (SelectScreen platform)
Summary of the method: as §1

[13] = biological target: T13, ITK (Homo sapiens, UniProt Q08881); conditions: estimated, abridged dose response curve, read-out: Kinase inhibitory activity EC50
T13 construct: purchased Invitrogen (SelectScreen)
Summary of the method: as §1

[14] = biological target: T14, LTK (TYK1) (Homo sapiens, UniProt P29376); conditions: estimated, abridged dose response curve, read-out: Kinase inhibitory activity EC50
T14 construct: purchased Invitrogen (SelectScreen platform)
Summary of the method: as §1

[15] = biological target: T15, MAP4K4 (HGK, ZC1) (Homo sapiens, UniProt O95819); conditions: estimated, abridged dose response curve, read-out: Kinase inhibitory activity EC50
T15 construct: purchased Invitrogen (SelectScreen platform)
Summary of the method: as §1

[16] = biological target: T16, MAPK8 (JNK1) (Homo sapiens, UniProt P45983); conditions: estimated, abridged dose response curve, read-out: Kinase inhibitory activity EC50
T16 construct: purchased Invitrogen, Inc. (SelectScreen service)
Summary of the method: as §1

[17] = biological target: T17, MAPKAPK3 (Homo sapiens, UniProt Q16644); conditions: estimated, abridged dose response curve, read-out: Kinase inhibitory activity EC50
T17 construct: purchased Invitrogen, Inc. (SelectScreen platform)
Summary of the method: as §1

[18] = biological target: T18, MET (cMet) (Homo sapiens, UniProt P08581); conditions: estimated, abridged dose response curve, read-out: Kinase inhibitory activity EC50
T18 construct: purchased Invitrogen (SelectScreen platform)
Summary of the method: as §1

[19] = biological target: T19, MUSK (Homo sapiens, UniProt O15146); conditions: estimated, abridged dose response curve, read-out: Kinase inhibitory activity EC50
T19 construct: purchased Invitrogen (SelectScreen platform)
Summary of the method: as §1

[20] = biological target: T20, NEK9 (Homo sapiens, UniProt Q8TD19); conditions: estimated, abridged dose response curve, read-out: Kinase inhibitory activity EC50
T20 construct: purchased Invitrogen, Inc. (SelectScreen service)
T20 sequence (Q8TD19 whole entry): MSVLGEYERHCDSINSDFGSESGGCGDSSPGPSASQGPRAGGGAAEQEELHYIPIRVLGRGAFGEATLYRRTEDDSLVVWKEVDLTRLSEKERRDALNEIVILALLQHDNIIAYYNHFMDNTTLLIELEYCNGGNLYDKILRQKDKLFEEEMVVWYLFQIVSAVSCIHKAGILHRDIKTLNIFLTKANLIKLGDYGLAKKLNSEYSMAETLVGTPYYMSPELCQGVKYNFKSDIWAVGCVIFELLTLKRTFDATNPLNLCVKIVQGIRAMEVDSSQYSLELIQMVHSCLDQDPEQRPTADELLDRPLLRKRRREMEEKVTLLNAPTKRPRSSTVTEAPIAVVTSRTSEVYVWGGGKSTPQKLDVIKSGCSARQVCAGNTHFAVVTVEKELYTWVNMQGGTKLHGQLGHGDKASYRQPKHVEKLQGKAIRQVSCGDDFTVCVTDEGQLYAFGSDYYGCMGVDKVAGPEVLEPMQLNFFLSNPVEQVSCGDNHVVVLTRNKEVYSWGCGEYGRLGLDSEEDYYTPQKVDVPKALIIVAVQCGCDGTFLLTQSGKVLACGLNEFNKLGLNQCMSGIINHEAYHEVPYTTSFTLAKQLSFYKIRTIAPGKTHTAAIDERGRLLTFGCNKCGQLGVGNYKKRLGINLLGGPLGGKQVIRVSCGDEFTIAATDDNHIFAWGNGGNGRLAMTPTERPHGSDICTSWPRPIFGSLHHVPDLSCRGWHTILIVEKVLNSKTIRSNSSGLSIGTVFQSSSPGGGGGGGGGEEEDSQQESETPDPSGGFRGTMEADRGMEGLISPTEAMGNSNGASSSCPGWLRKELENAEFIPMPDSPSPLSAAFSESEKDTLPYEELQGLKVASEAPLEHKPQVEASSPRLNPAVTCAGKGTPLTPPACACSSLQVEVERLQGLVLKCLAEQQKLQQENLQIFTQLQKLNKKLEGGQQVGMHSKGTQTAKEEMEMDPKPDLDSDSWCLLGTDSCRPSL
Summary of the method: as §1

[21] = biological target: T21, PAK6 (Homo sapiens, UniProt Q9NQU5); conditions: estimated, abridged dose response curve, read-out: Kinase inhibitory activity EC50
T21 construct: purchased Invitrogen (SelectScreen platform)
Summary of the method: as §1

[22] = biological target: T22, PRKD2 (PKD2) (Homo sapiens, UniProt Q9BZL6); conditions: estimated, abridged dose response curve, read-out: Kinase inhibitory activity EC50
T22 construct: purchased Invitrogen, Inc. (SelectScreen platform)
Summary of the method: as §1

[23] = biological target: T23, PRKX (Homo sapiens, UniProt P51817); conditions: estimated, abridged dose response curve, read-out: Kinase inhibitory activity EC50
T23 construct: purchased Invitrogen (SelectScreen platform)
Summary of the method: as §1

[24] = biological target: T24, RPS6KA2 (RSK3) (Homo sapiens, UniProt Q15349); conditions: estimated, abridged dose response curve, read-out: Kinase inhibitory activity EC50
T24 construct: purchased Invitrogen, Inc. (SelectScreen platform)
Summary of the method: as §1

[25] = biological target: T25, SGK2 (Homo sapiens, UniProt Q9HBY8); conditions: estimated, abridged dose response curve, read-out: Kinase inhibitory activity EC50
T25 construct: purchased Invitrogen, Inc. (SelectScreen platform)
Summary of the method: as §1

[26] = biological target: T26, STK22D (TSSK1) (Homo sapiens, UniProt Q9BXA7); conditions: estimated, abridged dose response curve, read-out: Kinase inhibitory activity EC50
T26 construct: purchased Invitrogen, Inc. (SelectScreen platform)
T26 sequence (Q9BXA7 whole entry): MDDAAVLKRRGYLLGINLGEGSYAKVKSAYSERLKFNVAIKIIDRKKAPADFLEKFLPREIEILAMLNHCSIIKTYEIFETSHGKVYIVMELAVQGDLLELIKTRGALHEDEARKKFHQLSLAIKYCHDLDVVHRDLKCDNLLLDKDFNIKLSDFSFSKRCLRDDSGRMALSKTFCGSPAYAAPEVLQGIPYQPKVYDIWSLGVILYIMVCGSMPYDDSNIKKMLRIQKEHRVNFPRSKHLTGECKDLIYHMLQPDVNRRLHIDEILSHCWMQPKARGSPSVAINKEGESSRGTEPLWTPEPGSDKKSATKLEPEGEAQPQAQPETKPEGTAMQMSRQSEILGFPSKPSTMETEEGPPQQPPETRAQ
Summary of the method: as §1

[27] = biological target: T27, STK25 (YSK1) (Homo sapiens, UniProt O00506); conditions: estimated, abridged dose response curve, read-out: Kinase inhibitory activity EC50
T27 construct: purchased Invitrogen (SelectScreen platform)
Summary of the method: as §1

[28] = biological target: T28, TBK1 (Homo sapiens, UniProt Q9UHD2); conditions: estimated, abridged dose response curve, read-out: Kinase inhibitory activity EC50
T28 construct: purchased Invitrogen, Inc. (SelectScreen service)
Summary of the method: as §1

Row | Compound | pEC50 [1] | pEC50 [2] | pEC50 [3] | pEC50 [4] | pEC50 [5] | pEC50 [6] | pEC50 [7] | pEC50 [8] | pEC50 [9] | pEC50 [11] | pEC50 [12] | pEC50 [13] | pEC50 [14] | pEC50 [15] | pEC50 [16] | pEC50 [17] | pEC50 [18] | pEC50 [19] | pEC50 [20] | pEC50 [21] | further results
1 | CN(C)CCCNc1ccc2ncn3c4ccc5[nH]ncc5c4c(=O)c1c23 [Compound (IV)] | 5.60 | 5.33 | 5.93 | 6.35 | 7.26 | < 5.30 | < 5.30 | < 5.30 | 5.49 | 5.92 | 5.81 | 6.20 | < 5.30 | < 5.30 | < 5.30 | < 5.30 | < 5.30 | 5.84 | 5.53 | < 5.30 | pEC50 ([10]; GRK4, estimated, abridged dose response curve, read-out: Kinase inhibitory activity EC50): < 5.30; pEC50 [22]: 6.12; pEC50 [23]: 5.85; pEC50 [24]: 6.08; pEC50 [25]: < 5.30; pEC50 [26]: 5.70; pEC50 [27]: < 5.30; pEC50 [28]: < 5.30
2 | CCN(CC)CCNc1ccc2ncn3c4ccc(O)cc4c(=O)c1c23 [Symadex, 5-(2-(diethylamino)ethylamino)-8-hydroxy-6H-imidazo[4,5,1-de]acridin-6-one, reference compound] | 5.35 | 5.61 | 5.47 | 5.66 | 6.50 | < 5.30 | < 5.30 | < 5.30 | < 5.30 | < 5.30 | < 5.30 | < 5.30 | < 5.30 | 5.50 | < 5.30 | < 5.30 | < 5.30 | 5.43 | < 5.30 | < 5.30 | pEC50 [10]: < 5.30; pEC50 [22]: 6.53; pEC50 [23]: 5.45; pEC50 [24]: 6.34; pEC50 [25]: < 5.30; pEC50 [26]: 5.71; pEC50 [27]: < 5.30; pEC50 [28]: < 5.30
